Several values for one entry are separate records, joined by “and”; a condition that tells them apart may be missing. Identical values can stand only once. Toxic doses and inconclusive results are not listed. How the source made its calls: active means survival T/C of 150% or more; inactive means T/C below 125% in these data.
Test system: P388 leukemia ip, CD2F1 mice, survival T/C
Test: NCI In Vivo Anticancer Drug Screen. Data for tumor model P388 Leukemia (intraperitoneal) in CD2F1 (CDF1) mice
Settings: endpoint: median survival time, higher = longer survival
Summary of the method: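 Mice carrying the transplanted tumor received test compound or vehicle. Survival was recorded in each group, and the value is the treated-group measurement divided by that of the vehicle-treated control group.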

[1] = dose: 100.0 mg/kg/injection, schedule: Q01DX009 (ip), vehicle: saline with Tween-80
[2] = dose: 200.0 mg/kg/injection, schedule: Q01DX009 (ip), vehicle: saline with Tween-80
[3] = dose: 50.0 mg/kg/injection, schedule: Q01DX005 (ip), vehicle: saline
[4] = dose: 100.0 mg/kg/injection, schedule: Q01DX005 (ip), vehicle: saline
[5] = dose: 100.0 mg/kg/injection, schedule: Q01DX001 (ip), vehicle: Klucel (hydroxypropylcellulose) (HPC)
[6] = dose: 200.0 mg/kg/injection, schedule: Q01DX001 (ip), vehicle: Klucel (hydroxypropylcellulose) (HPC)
[7] = dose: 50.0 mg/kg/injection, schedule: Q01DX009 (ip), vehicle: saline with Tween-80

Measured: T/C

COc1ccc(C[n+]2ccc3c([N+](=O)[O-])cccc3c2)cc1
inactive: dose: 7.5 mg/kg/injection, schedule: Q01DX005 (ip), vehicle: saline + Tween-80 + alcohol 111 % of control | dose: 15.0 mg/kg/injection, schedule: Q01DX005 (ip), vehicle: saline + Tween-80 + alcohol 116 % of control | dose: 30.0 mg/kg/injection, schedule: Q01DX005 (ip), vehicle: saline + Tween-80 + alcohol 116 % of control

COC(=O)CNC(=O)C(Cc1c[nH]c2ccccc12)NC(=O)OC(C)(C)C (stereo unspecified)
inactive: dose: 12.5 mg/kg/injection, schedule: Q01DX009 (ip), vehicle: other 96 % of control | dose: 25.0 mg/kg/injection, schedule: Q01DX009 (ip), vehicle: other 89 % of control | dose: 50.0 mg/kg/injection, schedule: Q01DX009 (ip), vehicle: other 89 % of control | dose: 100.0 mg/kg/injection, schedule: Q01DX009 (ip), vehicle: other 90 % of control | dose: 200.0 mg/kg/injection, schedule: Q01DX009 (ip), vehicle: other 97 % of control

c1ccc2c(c1)Cc1nc3ccccc3nc1-2
inactive: [1] 100 % of control | [2] 95 % of control | dose: 400.0 mg/kg/injection, schedule: Q01DX009 (ip), vehicle: saline with Tween-80 100 % of control

COC1CCC(OC2CC(C3(C)CCC4(CC(O)C(C)C(C(C)/C=C(\C)C(=O)C(C)CC(C)C(=O)O)O4)O3)OC3(OC(C4OC(O)(CO)C(C)CC4C)CC3C)C2C)OC1C (stereo unspecified)
inactive: dose: 12.5 micrograms/kg/injection, schedule: Q01DX009 (ip), vehicle: suspension in saline 106 % of control | dose: 25.0 micrograms/kg/injection, schedule: Q01DX009 (ip), vehicle: suspension in saline 108 % of control | dose: 37.5 micrograms/kg/injection, schedule: Q01DX009 (ip), vehicle: suspension in saline 114 % of control | dose: 50.0 micrograms/kg/injection, schedule: Q01DX009 (ip), vehicle: suspension in saline 108 % of control | dose: 75.0 micrograms/kg/injection, schedule: Q01DX009 (ip), vehicle: suspension in saline 109 % of control | dose: 100.0 micrograms/kg/injection, schedule: Q01DX009 (ip), vehicle: suspension in saline 100 % of control | dose: 150.0 micrograms/kg/injection, schedule: Q01DX009 (ip), vehicle: suspension in saline 100 % of control | dose: 200.0 micrograms/kg/injection, schedule: Q01DX009 (ip), vehicle: suspension in saline 107 % of control | dose: 400.0 micrograms/kg/injection, schedule: Q01DX009 (ip), vehicle: suspension in saline 104 % of control

COc1ccc(C(O)C2c3cc4c(cc3CCN2C)OCO4)c(CO)c1OC (stereo unspecified)
inactive: dose: 25.0 mg/kg/injection, schedule: Q01DX001 (ip), vehicle: saline + alcohol 88 % of control | dose: 50.0 mg/kg/injection, schedule: Q01DX001 (ip), vehicle: saline + alcohol 95 % of control | dose: 100.0 mg/kg/injection, schedule: Q01DX001 (ip), vehicle: saline + alcohol 104 % of control

CCC(C)NC1(N(C)C)N=C(N(C)C)N=C(N(C)C)O1 (stereo unspecified)
inactive: [3] 101 % of control | [4] 99 % of control

CC(C)(C)OC(=O)N1CCCC1C(=O)N1CCCC1C(=O)Oc1ccccc1 (stereo unspecified)
inactive: [3] 100 % of control | [4] 100 % of control | dose: 200.0 mg/kg/injection, schedule: Q01DX005 (ip), vehicle: saline 100 % of control

Nc1cc(-c2ccccc2)cn1-c1nnc(-c2ccc(Br)cc2)s1
inactive: [5] 101 % of control | [6] 100 % of control | dose: 400.0 mg/kg/injection, schedule: Q01DX001 (ip), vehicle: Klucel (hydroxypropylcellulose) (HPC) 99 % of control

CCCCOP(=O)(O)OCCCC
inactive: [5] 111 % of control | [6] 105 % of control

COC(=O)C(S)(NC(C)=O)C(C)C (stereo unspecified)
inactive: dose: 50.0 mg/kg/injection, schedule: Q01DX009 (ip), vehicle: saline 102 % of control | dose: 100.0 mg/kg/injection, schedule: Q01DX009 (ip), vehicle: saline 98 % of control | dose: 200.0 mg/kg/injection, schedule: Q01DX009 (ip), vehicle: saline 104 % of control

C[S+](CCSc1ccccc1)CCSc1ccccc1
inactive: dose: 7.5 mg/kg/injection, schedule: Q01DX009 (ip), vehicle: saline with Tween-80 90 % of control | dose: 15.0 mg/kg/injection, schedule: Q01DX009 (ip), vehicle: saline with Tween-80 101 % of control | dose: 30.0 mg/kg/injection, schedule: Q01DX009 (ip), vehicle: saline with Tween-80 99 % of control

CC(C)OC(=O)c1ccc(=O)oc1
inactive: dose: 100.0 mg/kg/injection, schedule: Q04DX003 (ip), vehicle: Klucel (hydroxypropylcellulose) (HPC) 105 % of control | dose: 200.0 mg/kg/injection, schedule: Q04DX003 (ip), vehicle: Klucel (hydroxypropylcellulose) (HPC) 99 % of control | dose: 400.0 mg/kg/injection, schedule: Q04DX003 (ip), vehicle: Klucel (hydroxypropylcellulose) (HPC) 110 % of control

COC1CC(N)C2OC(c3ccccc3)OCC2O1 (stereo unspecified)
inactive: [7] 99 % of control | [1] 101 % of control | [2] 109 % of control

Cc1ccc(S(=O)(=O)NCCN(CCN(CCNS(=O)(=O)c2ccc(C)cc2)S(=O)(=O)c2ccc(C)cc2)S(=O)(=O)c2ccc(C)cc2)cc1
inactive: [7] 101 % of control | [1] 92 % of control | [2] 90 % of control

CN(C)C(=S)Nc1ccc(S(=O)(=O)N2CCCCC2)cc1
inactive: dose: 50.0 mg/kg/injection, schedule: Q01DX009 (ip), vehicle: Klucel (hydroxypropylcellulose) (HPC) 105 % of control | dose: 100.0 mg/kg/injection, schedule: Q01DX009 (ip), vehicle: Klucel (hydroxypropylcellulose) (HPC) 105 % of control | dose: 200.0 mg/kg/injection, schedule: Q01DX009 (ip), vehicle: Klucel (hydroxypropylcellulose) (HPC) 105 % of control | dose: 400.0 mg/kg/injection, schedule: Q01DX009 (ip), vehicle: Klucel (hydroxypropylcellulose) (HPC) 101 % of control

O=C1C=C(NCCCC2CCCN3CCCCC23)C(=O)c2ccccc21 (stereo unspecified)
inactive: dose: 6.25 mg/kg/injection, schedule: Q01DX005 (ip), vehicle: Klucel (hydroxypropylcellulose) (HPC) 95 % of control | dose: 12.5 mg/kg/injection, schedule: Q01DX005 (ip), vehicle: Klucel (hydroxypropylcellulose) (HPC) 98 % of control | dose: 25.0 mg/kg/injection, schedule: Q01DX005 (ip), vehicle: Klucel (hydroxypropylcellulose) (HPC) 98 % of control

COC1=C(OC)C(=O)C(C/C=C(\C)CC/C=C(\C)CC/C=C(\C)CC/C=C(\C)CC/C=C(\C)CC/C=C(\C)CC/C=C(\C)CC/C=C(\C)CC/C=C(\C)CCC=C(C)C)=C(C)C1=O
inactive: dose: 3.13 mg/kg/injection, schedule: Q01DX009 (ip), vehicle: saline with Tween-80 90 % of control and 96 % of control | dose: 6.25 mg/kg/injection, schedule: Q01DX009 (ip), vehicle: saline with Tween-80 86 % of control and 93 % of control | dose: 12.5 mg/kg/injection, schedule: Q01DX009 (ip), vehicle: saline with Tween-80 96 % of control | dose: 25.0 mg/kg/injection, schedule: Q01DX009 (ip), vehicle: saline with Tween-80 86 % of control and 87 % of control | [7] 90 % of control | [1] 86 % of control and 87 % of control

CS(=O)(=O)CS(=O)CS(=O)CS(=O)CC(NC(=O)CCC(N)C(=O)O)C(=O)O (stereo unspecified)
inactive: dose: 12.5 mg/kg/injection, schedule: Q01DX005 (ip), vehicle: saline 96 % of control | dose: 25.0 mg/kg/injection, schedule: Q01DX005 (ip), vehicle: saline 98 % of control | [3] 97 % of control | dose: 100.0 mg/kg/injection, schedule: Q01DX005 (ip), vehicle: suspension in saline 108 % of control

Cc1nnc2c([N+](=O)[O-])c(N)c(Cl)nn12
inactive: dose: 7.5 mg/kg/injection, schedule: Q01DX005 (ip), vehicle: saline with Tween-80 118 % of control | dose: 15.0 mg/kg/injection, schedule: Q01DX005 (ip), vehicle: saline with Tween-80 113 % of control

CC(C)CC1COC(=O)C(CC(C)C)NC(=O)COCC(=O)NC(CC(C)C)C(=O)OCC(CC(C)C)NC(=O)COCC(=O)N1 (stereo unspecified)
inactive: dose: 60.0 mg/kg/injection, schedule: Q01DX005 (ip), vehicle: Klucel (hydroxypropylcellulose) (HPC) 99 % of control | dose: 120.0 mg/kg/injection, schedule: Q01DX005 (ip), vehicle: Klucel (hydroxypropylcellulose) (HPC) 100 % of control | dose: 240.0 mg/kg/injection, schedule: Q01DX005 (ip), vehicle: Klucel (hydroxypropylcellulose) (HPC) 101 % of control

Cc1ccc(S(=O)(=O)CC(O)(C(C)C)C(C)C)cc1
inactive: dose: 50.0 mg/kg/injection, schedule: Q01DX005 (ip), vehicle: saline with Tween-80 103 % of control | dose: 100.0 mg/kg/injection, schedule: Q01DX005 (ip), vehicle: saline with Tween-80 102 % of control | dose: 200.0 mg/kg/injection, schedule: Q01DX005 (ip), vehicle: saline with Tween-80 102 % of control

OC1(C2(O)CCCC2)CCCC1
inactive: dose: 100.0 mg/kg/injection, schedule: Q04DX003 (ip), vehicle: saline with Tween-80 100 % of control | dose: 200.0 mg/kg/injection, schedule: Q04DX003 (ip), vehicle: saline with Tween-80 104 % of control | dose: 400.0 mg/kg/injection, schedule: Q04DX003 (ip), vehicle: saline with Tween-80 95 % of control

— PubChem BioAssay AID330 (DTP/NCI, 2004)
